Data on five compounds can be found in ChEMBL document CHEMBL1123909, “New inhibitors of human renin that contain novel Leu-Val replacements” (J Med Chem, 1987).

In experiment [1] the target is T1, Renin (Homo sapiens) (UniProt P00797).
T1 sequence (whole entry): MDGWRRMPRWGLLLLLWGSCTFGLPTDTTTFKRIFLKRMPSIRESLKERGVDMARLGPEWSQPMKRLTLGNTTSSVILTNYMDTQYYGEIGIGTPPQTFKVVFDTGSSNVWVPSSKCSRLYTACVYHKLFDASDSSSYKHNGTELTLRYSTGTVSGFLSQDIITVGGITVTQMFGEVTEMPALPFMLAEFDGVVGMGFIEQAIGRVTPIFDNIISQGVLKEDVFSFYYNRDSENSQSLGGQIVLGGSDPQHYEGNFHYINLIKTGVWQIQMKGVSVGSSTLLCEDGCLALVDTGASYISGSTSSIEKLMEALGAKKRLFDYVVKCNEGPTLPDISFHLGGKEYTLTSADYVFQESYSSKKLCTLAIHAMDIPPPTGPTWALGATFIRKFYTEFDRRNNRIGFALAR
The experiment can be described thus: The compound was tested for inhibition of human renal renin at the concentration of 10e-5 M (2:1 mixture of S:R diastereomers at the carbon bearing the hydroxyl group.

Experiment [2] deals with T1, Renin (Homo sapiens). The experiment can be described thus: The compound was tested for inhibition of human renal renin at the concentration of 10e-6 M.
In a further experiment the target is T2, Renin (Homo sapiens, UniProt P00797).
T2 sequence (P00797 whole entry): T1 sequence (whole entry)
The experiment can be described thus: The compound was tested for inhibition of human renal renin at the pH optimum 7.4.

Another experiment deals with Pepsin A (Sus scrofa) (UniProt P00791). The experiment can be described thus: Inhibition of porcine pepsin. Also noted: concentration or dose not given beside the values. The note with it: concentration not given here.
Chain of Pepsin A (Sus scrofa) (P00791 60-385 limits assumed): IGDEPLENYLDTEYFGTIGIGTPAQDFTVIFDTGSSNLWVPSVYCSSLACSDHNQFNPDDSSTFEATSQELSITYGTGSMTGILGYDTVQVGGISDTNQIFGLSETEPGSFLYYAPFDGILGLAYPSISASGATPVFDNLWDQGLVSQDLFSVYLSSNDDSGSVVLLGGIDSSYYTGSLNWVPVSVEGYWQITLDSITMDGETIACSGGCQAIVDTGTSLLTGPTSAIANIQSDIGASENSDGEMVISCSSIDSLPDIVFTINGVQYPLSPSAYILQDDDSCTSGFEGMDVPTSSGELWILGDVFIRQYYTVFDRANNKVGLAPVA
Experiment [3] has as its target T1, Renin (Homo sapiens). The experiment can be described thus: The compound was tested for inhibition of human renal renin at the concentration of 10e-5 M (compound with OH epimer).
Experiment [4] concerns the target T1, Renin (Homo sapiens). The experiment can be described thus: The compound was tested for inhibition of human renal renin at the concentration of 10e-7 M.

With `CC(C)C[C@@H](NC(=O)[C@H](C)NC(=O)[C@H](Cc1ccccc1)NC(=O)OC(C)(C)C)[C@H](O)CCc1ccccc1`, the inhibition at Renin (Homo sapiens) [1] was determined as 35%.
In the case of `CC(C)CC[C@@H](O)[C@@H](CC(C)C)NC(=O)[C@H](Cc1c[nH]cn1)NC(=O)[C@H](Cc1cccc2ccccc12)NC(=O)OC(C)(C)C`, the inhibition against Renin (Homo sapiens) [2] was 93%; against Pepsin A (Sus scrofa), 6%. Further, the IC50 on Renin amounted to 150 nM.
Regarding `CC(C)C[C@H](NC(=O)[C@H](Cc1c[nH]cn1)NC(=O)[C@H](Cc1ccccc1)NC(=O)OC(C)(C)C)[C@@H](O)CSC1CCCCC1` (stereo in doubt; 56), the inhibition at Renin (Homo sapiens) [3] was found to be 95%.
At Renin (Homo sapiens) [3], `CC(C)CC[C@@H](O)[C@H](CC(C)C)NC(=O)[C@H](C)NC(=O)[C@H](Cc1ccccc1)NC(=O)OC(C)(C)C` displayed an inhibition of 16%.
For the compound `CC(C)C[C@@H](NC(=O)[C@H](Cc1c[nH]cn1)NC(=O)[C@H](Cc1ccc2ccccc2c1)NC(=O)OC(C)(C)C)[C@H](O)CSC1CCCCC1`, the results for the inhibition against Renin (Homo sapiens) [4] and at Pepsin A (Sus scrofa) were 85% and 0%, respectively. This compound displayed an IC50 against Renin of 40 nM.

As usually defined, the inhibition is the change of the read-out against control, counted positive when it falls. A word on the IC50: it is the point on the concentration scale where inhibition reaches its midpoint.
